# Data reported in patent US10130585B2, “Methods of treating and/or preventing cardiovascular disease” (Murray and Poole Enterprises Limited, priority 2013, dated 2018).
# Columns and labels:
# [1] = test system: patients with a first episode of recurrent pericarditis; conditions: conventional treatment with aspirin plus colchicine 1.0-2.0 mg first day then 0.5-1.0 mg/d for 6 months; cited from earlier work
# [2] = test system: patients with stable coronary disease; assay: LoDoCo Trial, colchicine 0.5 mg/day added to standard secondary prevention; type: in vivo, human
# Method: This study is described in PCT/AU2013/001261 and is hereby incorporated in its entirety by reference.
# All outcomes were evaluated by an experienced adjudicator blinded to the treatment allocation.
# Patients with a history of bypass surgery were only eligible if they had undergone bypass surgery more than 10 years before, or had angiographic evidence of graft failure or had undergone stenting since their bypass surgery. All patients signed informed consent before randomization.
# The randomization sequence was computer generated, kept concealed from the investigators at all times and was managed by a research assistant who had no involvement in the evaluation or management of study patients. Once the assistant received the consent form, the patients' demographic data were entered into the data base and the investigators and patients were advised in writing of the treatment group to which the patient had been assigned. […] Patients who were intolerant to therapy remained in the study, and were followed in the usual manner and included in the primary intention to treat analysis.
# The drug was dispensed by their usual chemist, and if requested, patients were reimbursed for the cost of these scripts. All other treatments were continued as usual.
# Patient compliance with treatment and outcome data were collected at routine follow up visits and at the time of any unplanned hospital admission. An acute coronary syndrome (ACS) was defined as either (a) Acute Myocardial Infarction (AMI), as evidenced by acute ischemic chest pain associated with a rise in serum troponin above the upper limit of normal or (b) Unstable Angina (UA), as evidenced by a recent acceleration of the patient's angina unassociated with a rise in serum troponin but associated with angiographic evidence of a change in the patient's coronary anatomy. (Unstable Angina Braunwald classification types IB and IIB). The ACS was characterized as being stent-related if there was evidence of significant in-stent stenosis or acute stent thrombosis. Out of Hospital Cardiac Arrest was defined as either a sudden death as evidenced on the patient's death certificate, or a non-fatal out of hospital cardiac arrest, defined as a recovery from sudden collapse associated with documented asystole, ventricular tachycardia or ventricular fibrillation. Noncardioembolic ischemic stroke was defined as CT or MRI proven ischemic stroke adjudged by the treating neurologist as not being due to atrial fibrillation or intracranial hemorrhage.
# The primary efficacy outcome was the composite, ACS, fatal or non-fatal out of hospital cardiac arrest or non-cardio-embolic ischemic stroke. Secondary outcomes were (a) individual components of the primary outcome, and (b) the components of ACS unrelated to stent disease.
# The pre-specified study duration was a minimum follow up of two years in all patients. Accordingly the study was closed on May 31, 2012. During May, all living patients were contacted by phone to collect compliance and outcome data from the last date of follow-up. Final outcome data were available in all patients and no patients were lost to follow up.
# Summary statistics, including mean and standard deviation were calculated for all baseline characteristics by treatment arm. All time to event outcomes were calculated in days by subtracting the date of randomization from either: (1) the date of event or death; or (2) the trial termination date for those patients not experiencing the defined event. […]
smiles,measurement,setting,value
"COc1cc2c(c(OC)c1OC)-c1ccc(OC)c(=O)cc1[C@@H](NC(C)=O)CC2 [colchicine, N[5,6,7,9-tetrahydro-1,2,3,10-tetratmethoxy 9-oxobenzo[a]heptalen-7-yl],(S)-acetamide]","recurrence rate, actuarial rate at 18 months",[1],24.0%
same,"number needed to treat, primary outcome",[2]; colchicine 0.5 mg/day vs control,11
same,patients who died,"[2]; colchicine group (n=282), all of non-cardiac causes",4 patients
same,patients reporting early intolerance due to gastrointestinal side effects,[2]; of 282 randomized to colchicine 0.5 mg/day,11%
same,"patients with events, on-treatment analysis",[2]; patients compliant and tolerant to therapy beyond the first month,4.5%
same,Out of hospital cardiac arrest and non-cardio-embolic ischemic stroke,[2]; treatment group vs control,also reduced in the treatment group
